From patent US20220177487A1, “FUSED POLYCYCLIC PYRIDONE COMPOUNDS AS INFLUENZA VIRUS REPLICATION INHIBITORS” (NIKANG THERAPEUTICS, INC., priority 2019, published 2022)

system: Influenza virus A/PR/8/34 (H1N1); assay: in vitro cytopathic effect (CPE) assay in MDCK cells; type: cell-based; settings: H1N1|PR/8, 120 h; MDCK cells infected with Influenza virus A/PR/8/34 (H1N1), 5 days, cell viability by CCK8

SMILES | EC50 [nM]
O=C1c2c(O)c(=O)ccn2N([C@@H]2c3ccccc3SCc3cccc(F)c32)[C@@H]2[C@H]3C[C@@H]4CC[C@@]3(CCN12)O4 [Compound 3, (2S,4aS,14aR,14bR)-14-((S)-10-fluoro-6,11-dihydro-dibenzo[b,e]thiepin-11-yl)-9-hydroxy-1,3,4,5,6,14,14a,14b-octahydro-2H-2,4a-epoxypyrido[1′,2′:1,6][1,2,4]triazino[3,4-a]-isoquinoline-8,10-dione] | 2.1
O=C1c2c(O)c(=O)ccn2N([C@H]2c3ccccc3SCc3cccc(F)c32)[C@@H]2[C@H]3C[C@@H]4CC[C@@]3(CCN12)O4 [Compound 4, (2S,4aS,14aR,14bR)-14-((R)-10-fluoro-6,11-dihydro-dibenzo[b,e]thiepin-11-yl)-9-hydroxy-1,3,4,5,6,14,14a,14b-octahydro-2H-2,4a-epoxypyrido[1′,2′:1,6][1,2,4]triazino[3,4-a]-isoquinoline-8,10-dione] | 52
O=C1c2c(O)c(=O)ccn2N(C2c3cccc(F)c3CCc3c(F)cccc32)[C@@H]2[C@H]3C[C@@H]4CC[C@@]3(CCN12)O4 [Compound 9, (2S,4aS,14aR,14bR)-14-(1,9-difluoro-10,11-dihydro-5H-dibenzo[a,d][7]annulen-5-yl)-9-hydroxy-1,3,4,5,6,14,14a,14b-octahydro-2H-2,4a-epoxypyrido[1′,2′:1,6][1,2,4]triazino[3,4-a]-isoquinoline-8,10-dione] | 20
O=C1c2c(O)c(=O)ccn2N(C2c3ccc(F)cc3CCc3cc(F)ccc32)[C@@H]2[C@H]3C[C@@H]4CC[C@@]3(CCN12)O4 [Compound 10, (2S,4aS,14aR,14bR)-14-(2,8-difluoro-10,11-dihydro-5H-dibenzo[a,d][7]annulen-5-yl)-9-hydroxy-1,3,4,5,6,14,14a,14b-octahydro-2H-2,4a-epoxypyrido[1′,2′:1,6][1,2,4]triazino[3,4-a]-isoquinoline-8,10-dione] | 3.6
